Measured values as given in patent US10005773B2, “1-(4-pyrimidinyl)-1H-pyrrolo[3,2-c]pyridine derivatives as NIK inhibitors” (Janssen Pharmaceutica NV, priority 2013, dated 2018).

Tests used:
[1] = system: LP-1 cells; assay: Biological Assay C: antiproliferative activity on LP-1 cells (CellTiter-Glo); type: cell-based; details: Homo sapiens, 72 hr treatment
Procedure: (§1) Determination of Antiproliferative Activity on LP-1, L-363 and JJN-3 Cells
(§2) All compounds tested were dissolved in DMSO and further dilutions were made in culture medium. Final DMSO concentration was 0.3% (v/v) in cell proliferation assays. Viability was assessed using CellTiter-Glo cell viability assay kit (Promega). The human LP-1, L-363 and JJN-3 cells (DSMZ) were cultured in RPMI 1640 medium supplemented with 2 mM L-glutamine, and 10% fetal calf serum (PAA). Cells were routinely kept as suspension cells at 37° C. in a humidified 5% CO2 atmosphere. Cells were passaged at a seeding density of 0.2×10^6/ml twice a week. Cells were seeded in black tissue culture treated 96-well plates (Perkin Elmer). Densities used for plating ranged from 2,000 to 6,000 cells per well in a total volume of 75 μl medium. After twenty four hours, drugs and/or solvents were added (25 μl) to a final volume of 100 μl. Following 72 hr of treatment plates were removed from the incubator and allowed to equilibrate to room temperature for approx 10 min. 100 μl CellTiter-Glo reagent was added to each well that was then covered (Perkin Elmer Topseal) and shaken on plate shaker for 10 min. Luminescence was measured on a HTS Topcount (Perkin Elmer). Within an experiment, the results for each treatment were the mean of 2 replicate wells. For initial screening purposes, compounds were tested using a 9 point dilution curve (serial 1:3 dilutions). For each experiment, controls (containing no drug) and a blank incubation (containing cells read at the time of compound addition) were run in parallel. The blank value was subtracted from all control and sample values. For each sample, the mean value for cell growth (in relative light units) was expressed as a percentage of the mean value for cell growth of the control.

[2] = system: JJN-3 cells; assay: Biological Assay C: antiproliferative activity on JJN-3 cells (CellTiter-Glo); type: cell-based; details: Homo sapiens, 72 hr treatment
Procedure: as §1, §2

[3] = molecular target: T1, Recombinant Human NF-kappaB-Inducing Kinase (NIK/MAP3K14) (Homo sapiens, UniProt Q99558); assay: Biological Assay A: inhibition of recombinant human NIK/MAP3K14 activity (MSD, MBP substrate); details: 25 μM ATP, 10 nM NIK/MAP3K14, 1 h at 25° C.; averaged over all batches; read-out: Biochemical (MSD MBP) IC50
T1 sequence (Q99558 whole entry): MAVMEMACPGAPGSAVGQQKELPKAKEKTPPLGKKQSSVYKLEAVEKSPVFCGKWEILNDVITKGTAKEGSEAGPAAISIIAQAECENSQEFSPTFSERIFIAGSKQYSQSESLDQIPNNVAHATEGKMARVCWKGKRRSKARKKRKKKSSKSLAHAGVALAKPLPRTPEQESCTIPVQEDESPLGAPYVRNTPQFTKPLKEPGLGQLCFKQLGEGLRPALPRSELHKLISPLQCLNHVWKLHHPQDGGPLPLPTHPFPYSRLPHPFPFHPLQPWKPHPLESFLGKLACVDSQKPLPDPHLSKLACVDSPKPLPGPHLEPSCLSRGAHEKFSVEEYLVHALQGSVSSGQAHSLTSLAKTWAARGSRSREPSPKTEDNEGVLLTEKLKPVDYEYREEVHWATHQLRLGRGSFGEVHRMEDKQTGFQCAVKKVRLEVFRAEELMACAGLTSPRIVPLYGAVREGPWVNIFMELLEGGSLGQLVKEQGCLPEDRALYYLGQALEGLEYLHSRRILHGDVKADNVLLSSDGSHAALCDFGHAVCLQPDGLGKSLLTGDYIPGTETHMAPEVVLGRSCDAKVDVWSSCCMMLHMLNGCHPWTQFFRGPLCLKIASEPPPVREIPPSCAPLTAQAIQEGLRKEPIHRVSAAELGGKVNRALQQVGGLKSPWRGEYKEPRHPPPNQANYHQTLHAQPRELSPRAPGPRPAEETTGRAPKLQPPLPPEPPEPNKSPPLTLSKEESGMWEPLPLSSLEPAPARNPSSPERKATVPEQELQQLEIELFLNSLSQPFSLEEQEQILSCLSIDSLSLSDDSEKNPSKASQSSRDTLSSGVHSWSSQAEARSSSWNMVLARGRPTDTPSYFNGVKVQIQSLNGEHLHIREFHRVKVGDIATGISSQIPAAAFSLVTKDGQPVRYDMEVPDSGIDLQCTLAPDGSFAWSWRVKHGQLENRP
Procedure: Inhibition of Recombinant Human NF-kappaB-Inducing Kinase (NIKIMAP3K14) Activity
Assay buffer was 50 mM Tris pH 7.5 containing 1 mM ethylene glycol tetraacetic acid (EGTA), 1 mM dithiothreitol (DTT), 0.1 mM Na3VO4, 5 mM MgCl2, 0.01% Tween® 20. Assays were carried out in 384 well Mesoscale high binding plates which had been coated with myelin basic protein (MBP) and blocked with bovine serum albumin to prevent non-specific protein binding. All compounds tested were dissolved in dimethyl sulfoxide (DMSO) and further dilutions were made in assay buffer. Final DMSO concentration was 1% (v/v) in assays. Incubations consisted of compound (1% DMSO in control and blank wells), 25 μM Adenosine-5′-triphosphate (ATP), and 10 nM NIK/MAP3K14 substituting enzyme with buffer in the blank wells. Incubations were carried out for 1 h at 25° C. and were followed by washing and sequential incubation with rabbit anti-phospho-MBP and anti-rabbit Ig Sulfotag antibody before reading bound Sulfotag on a Mesoscale Discovery. Signal obtained in the wells containing blank samples was subtracted from all other wells and IC50's were determined by fitting a sigmoidal curve to % inhibition of control versus Log10 compound concentration.

[4] = system: P-IKKα levels in L363 cells; assay: Biological Assay B: effect of compounds on P-IKKα levels in L363 cells; type: cell-based; details: Homo sapiens, L-363, BAFF stimulated, 2 hr treatment, averaged over all batches, read-out: IKKα Cellular IC50
Procedure: Effect of Compounds on P-IKKα Levels in L363 Cells
All compounds tested were dissolved in DMSO and further dilutions were made in culture medium. Final DMSO concentration was 1% (v/v) in cell assays. The human L363 cells (ATCC) were cultured in RPMI 1640 medium supplemented with GlutaMax and 10% fetal calf serum (PAA). Cells were routinely maintained at densities of 0.2×10^6 cells per ml-1×10^6 cells per ml at 37° C. in a humidified 5% CO2 atmosphere. Cells were passaged twice a week splitting back to obtain the low density. Cells were seeded in 96 well plates (Nunc 167008) at 2×10^6 per ml media in a volume of 75 μl per well plus 25 μl 1 μg/ml recombinant human B-cell activating factor (BAFF/BLyS/TNFSF13B). Seeded cells were incubated at 37° C. in a humidified 5% CO2 atmosphere for 24 hr. Drugs and/or solvents were added (20 μl) to a final volume of 120 μl. Following 2 hr treatment plates were removed from the incubator and cell lysis was achieved by the addition of 30 μl 5× lysis buffer followed by shaking on a plate shaker at 4° C. for 10 min. At the end of this incubation lysed cells were centrifuged at 800×g for 20 min at 4° C. and the lysate was assessed for P-IKKα levels by sandwich immuno-assay carried out in anti-rabbit antibody coated Mesoscale plates. Within an experiment, the results for each treatment were the mean of 2 replicate wells. For initial screening purposes, compounds were tested using an 8 point dilution curve (serial 1:3 dilutions). For each experiment, controls (containing MG132 and BAFF but no test drug) and a blank incubation (containing MG132 and BAFF and 10 μM ADS125117, a test concentration known to give full inhibition) were run in parallel. The blank incubation value was subtracted from all control and sample values. To determine the IC50 a sigmoidal curve was fitted to the plot of % inhibition of control P-IKKα levels versus Log10 compound concentration.

[5] = system: L-363 cells; assay: Biological Assay C: antiproliferative activity on L-363 cells (CellTiter-Glo); type: cell-based; details: Homo sapiens, 72 hr treatment
Procedure: as §1, §2

[6] = molecular target: T1, Recombinant Human NF-kappaB-Inducing Kinase (NIK/MAP3K14); assay: Biological Assay A2: inhibition of auto-phosphorylation of recombinant human NIK/MAP3K14 (AlphaScreen); type: biochemical; details: 25 microM ATP, 0.2 nM NIK/MAP3K14, 1 h at 25° C., averaged over all batches, read-out: Alpha-Screen IC50
Procedure: Inhibition of Auto-Phosphorylation of Recombinant Human NF-kappaB-Inducing Kinase (NIKIMAP3K14) Activity (AlphaScreen®)
NIK/MAP3K14 auto-phosphorylation activity was measured using the AlphaScreen® (ascreen) format (Perkin Elmer). All compounds tested were dissolved in dimethyl sulfoxide (DMSO) and further dilutions were made in assay buffer. Final DMSO concentration was 1% (v/v) in assays. Assay buffer was 50 mM Tris pH 7.5 containing 1 mM EGTA (ethylene glycol tetraacetic acid), 1 mM DTT (dithiothreitol), 0.1 mM Na3VO4, 5 mM MgCl2, 0.01% Tween® 20. Assays were carried out in 384 well Alphaplates (Perkin Elmer). Incubations consisted of compound, 25 microM Adenosine-5′-triphosphate (ATP), and 0.2 nM NIK/MAP3K14. Incubations were initiated by addition of GST-tagged NIK/MAP3K14 enzyme, carried out for 1 h at 25° C. and terminated by addition of stop buffer containing anti-phospho-IKK Ser176/180 antibody. Protein A Acceptor and Glutathione-Donor beads were added before reading using an EnVision® Multilabel Plate Reader (Perkin Elmer). Signal obtained in the wells containing blank samples was subtracted from all other wells and IC50's were determined by fitting a sigmoidal curve to % inhibition of control versus Log10 compound concentration.

Row | Compound | EC50 [1] [µM] | EC50 [2] [nM] | IC50 [3] [nM] | IC50 [4] [nM] | EC50 [5] [µM] | IC50 [6] [nM]
1 | CC(C)(O)C#Cc1cc2c(ccn2-c2nc(N)ncc2Cl)cn1 [Compound 7] | 1.9 | 1050 | 3.8 | 163 | 0.977 | 16
2 | Nc1ncc(Cl)c(-n2ccc3cnc(C#CC4(O)CC4)cc32)n1 [Compound 8] | 2.33 | 1590 | 12 | 104 | 1.56 | 24
3 | Nc1ncc(Cl)c(-n2ccc3cnc(C#CC4(O)CCCC4)cc32)n1 [Compound 9] | 37.2 | 1830 | 2.8 | 101 | 15.4 | 11
4 | CC(O)(C#Cc1cc2c(ccn2-c2nc(N)ncc2Cl)cn1)c1nccs1 (stereo not drawn) [Compound 10] | 28 | 1220 | 5.1 | 89 | 12.8 | 18
5 | Cc1cnc(N)nc1-n1ccc2cnc(C#CC(C)(C)O)cc21 [Compound 11] | 5.84 | 2720 | 115 | 330 | 3.77 | 232
6 | CC(C)(O)C#Cc1cc2c(ccn2-c2nc(N)ncc2F)cn1 [Compound 12] | 0.282 | 132 | 77 | 25 | 0.133 | 13
7 | Nc1ncc(F)c(-n2ccc3cnc(C#CC4(O)CCCC4)cc32)n1 [Compound 13] | 3.27 | 872 | 18 | 44 | 4.26 | 7.7
8 | CC(C)(O)C#Cc1cc2c(cn1)c(C(N)=O)cn2-c1ccnc(N)n1 [Compound 14] | > 30 | 10700 | 28 | 1240 | 12.7 | 185
9 | CNC(=O)c1cn(-c2ccnc(N)n2)c2cc(C#CC(C)(C)O)ncc12 [Compound 15] | > 30 | 3330 | 37 | 1310 | 7.19 | 59
10 | CC(CO)c1cn(-c2ccnc(N)n2)c2cc(C#CC(C)(C)O)ncc12 (stereo not drawn) [Compound 16] | 6.12 | 157 | 20 | 56 | 0.354 | 6.7
11 | CCCCOCc1cn(-c2ccnc(N)n2)c2cc(C#CC(C)(C)O)ncc12 [Compound 17] | 0.46 | 333 | 82 | 199 | 0.464 | 259
